Source: PMC7564829, “Potent Broad-Spectrum Antibacterial Activity of Amphiphilic Peptides against Multidrug-Resistant Bacteria” (Microorganisms, 2020)
Values after ≈ are worked out from the molar mass of the structure shown. Read-outs that look alike come from different tables or passages of the source. Ends that are not written are not given here.

Columns and labels:
[1] = system: MDR E. coli B2 (mcr-1 + blaNDM-5); test: microbe, parasite or virus in culture; assay type: cell-based
Experimental: (§1) Experiments were performed with two biological replicates.

E. coli 1F31 = test: MIC, tigecycline-resistant clinical isolate; assay type: cell-based
Experimental: as §1

Shigella 1F25 = test: MIC, tigecycline-resistant clinical isolate; assay type: cell-based; details: Shigella 1F25, feces, broth micro-dilution
Experimental: as §1

E. coli 1C1 = test: MIC, tigecycline-resistant clinical isolate; assay type: cell-based
Experimental: as §1

E. coli 1N31 = test: MIC, tigecycline-resistant clinical isolate; assay type: cell-based
Experimental: as §1

E. coli 2A19 = test: MIC, tigecycline-resistant clinical isolate; assay type: cell-based
Experimental: as §1

E. coli 1A34 = test: MIC, tigecycline-resistant clinical isolate; assay type: cell-based
Experimental: as §1

E. coli 2W25 = test: MIC, tigecycline-resistant clinical isolate; assay type: cell-based
Experimental: as §1

E. coli 1N28 = test: MIC, tigecycline-resistant clinical isolate; assay type: cell-based
Experimental: as §1

E. coli 1F16 = test: MIC, tigecycline-resistant clinical isolate; assay type: cell-based
Experimental: as §1

MRSA T144 = test: MIC/MBC, broth micro-dilution; assay type: cell-based, Staphylococcus aureus
Experimental: as §1

S. aureus ATCC 29213 = test: microbe, parasite or virus in culture; assay type: cell-based
Experimental: as §1

[2] = system: S. enteritidis ATCC 13076; test: microbe, parasite or virus in culture; assay type: cell-based
Experimental: as §1

E. coli ATCC 25922 = test: microbe, parasite or virus in culture; assay type: cell-based
Experimental: as §1

[3] = system: S. aureus 215 (cfr + LZD^R); test: microbe, parasite or virus in culture; assay type: cell-based; details: 18 h
Experimental: as §1

[4] = Hydrophobicity by RP-HPLC (percent acetonitrile at elution); assay type: physicochemical; details: acetonitrile in water, 0.1% (v/v) TFA, higher percent = higher hydrophobicity
Experimental: All peptides used in this study were synthesized by GL Biochem (Shanghai, China) using a solid phase peptide synthesis (SPPS) method, and their accurate molecular weights were determined by matrix-assisted laser desorption/ionization time-of-flight mass spectrometry (MALDI-TOF MS). The peptide purity (>95%) and retention time were determined by reversed-phase high-performance liquid chromatography (HPLC).
A collection of tryptophan-rich linear peptides on the basis of MP196 (RWRWRW-NH2) was designed by increasing peptide length or positive charge or hydrophobicity, replacing amino acids and/or N-terminal acetylation (Table 1). These peptides were synthesized via solid-phase peptide synthesis (SPPS), purified by reverse-phase high-performance liquid chromatography (RP-HPLC) (Figure S1) and validated by matrix-assisted laser desorption/ionization time-of-flight mass spectrometry (MALDI-TOF MS) (Figure S2). […] All engineered peptides belong to cationic AMPs, with 3 or 6 net charges. The percentage of acetonitrile at RP-HPLC elution was regarded as a relative measure of peptides’ hydrophobicity. […] The hydrophobicity order was listed as follows: WRK-12 > WL-9 > WR-6 > WV-9 > KW-6 > WKK-12 > WR-12 > MP196 > WK-6.

E. coli 1F28 (tet(X4)) = test: MIC/MBC, broth micro-dilution; assay type: cell-based
Experimental: as §1

E. faecalis A4 (VRE) = test: MIC/MBC, broth micro-dilution; assay type: cell-based
Experimental: as §1

E. coli B3-1 (tet(X4)) = test: MIC/MBC, broth micro-dilution; assay type: cell-based
Experimental: as §1

RBCs = details: cited from earlier work
[5] = ref [19]; cited from earlier work
Excerpt: Antimicrobial peptides (AMPs), also named host defense peptides, are originated from various organisms and are important immune modulation molecules that protect the host from the invading pathogens. […] However, the high cost of peptides, the lability to proteases, less bioavailable and nonspecific toxicity still hinder these AMPs in clinical practice. A more rational design of AMPs contributes to improving their stability and antibacterial activity. ...

[6] = MDR B2 (mcr-1 + blaNDM-5, 18 h)
[7] = S. aureus 215 (cfr + LZD^R), broth micro-dilution CLSI 2018, MHB, 37 °C
[8] = Staphylococcus aureus, MRSA T144, broth micro-dilution CLSI 2018, MHB, 18 h, 37 °C, read-out: MIC
[9] = Escherichia coli, Table 2, E. coli B2 (mcr-1 + blaNDM-5), broth micro-dilution CLSI 2018, MHB, 18 h, 37 °C, read-out: MIC
[10] = Escherichia coli, E. coli 1F28 (tet(X4)), broth micro-dilution CLSI 2018, MHB, 18 h, 37 °C, read-out: MIC
[11] = Escherichia coli, E. coli B3-1 (tet(X4)), broth micro-dilution CLSI 2018, MHB, 18 h, 37 °C, read-out: MIC
[12] = Staphylococcus aureus, ATCC29213, 18 h
[13] = Escherichia coli, ATCC25922, 18 h
[14] = Enterococcus faecalis, VRE, 18 h

WRWRWR-NH2 [WR-6]
MIC [1, 6]: >64 µg/mL

Ac-WKVKWKVKWKVK-NH2 [WKK-12]
MIC (E. coli 1F31; 1F31, 4 h): 64 µg/mL
MIC (Shigella 1F25): 64 µg/mL
MIC (E. coli 1C1; 1C1, 4 h): 64 µg/mL
MIC (E. coli 1N31; 1N31, 4 h): 64 µg/mL
MIC (E. coli 2A19; 2A19, 4 h): 128 µg/mL
MIC (E. coli 1A34; 1A34, 4 h): 64 µg/mL
MIC (E. coli 2W25; 2W25, 4 h): 64 µg/mL
MIC (E. coli 1N28; 1N28, 4 h): 64 µg/mL
MIC (E. coli 1F16; 1F16, 4 h): 64 µg/mL
MIC (MRSA T144; T144, 18 h): 64 µg/mL
MIC (S. aureus ATCC 29213; ATCC 29213, 18 h): 128 µg/mL
MIC [1, 6]: 64 µg/mL
MIC ([2]; ATCC 13076, 18 h): 64 µg/mL
MIC (E. coli ATCC 25922; ATCC 25922, 18 h): 128 µg/mL
MIC [3, 7]: 64 µg/mL
H (hydrophobicity, percent of acetonitrile at HPLC elution) [4]: 31.424 percent acetonitrile
MIC (E. coli 1F28 (tet(X4)); 1F28 (tet(X4, 18 h))): 64 µg/mL
MIC (E. faecalis A4 (VRE); A4 (VRE, 18 h)): 64 µg/mL
MIC (E. coli B3-1 (tet(X4)); B3-1 (tet(X4, 18 h))): 64 µg/mL

CC1(C)S[C@@H]2[C@H](NC(=O)[C@H](N)c3ccccc3)C(=O)N2[C@H]1C(=O)O [AMP, ampicillin]
MIC (MRSA T144; [8]): 32 µg/mL (≈ 91.6 µM)
MIC (S. aureus ATCC 29213; Staphylococcus aureus, ATCC29213, S. aureus ATCC 29213, broth micro-dilution CLSI 2018, MHB, 18 h, 37 °C, read-out: MIC): 0.25 µg/mL (≈ 0.715 µM)
MIC [1, 9]: > 128 µg/mL
MIC ([2]; Salmonella enterica, S. enteritidis ATCC 13076, broth micro-dilution CLSI 2018, MHB, 18 h, 37 °C, read-out: MIC): 8 µg/mL (≈ 22.9 µM)
MIC (E. coli ATCC 25922; Escherichia coli, ATCC25922, E. coli ATCC 25922, broth micro-dilution CLSI 2018, MHB, 18 h, 37 °C, read-out: MIC): 8 µg/mL (≈ 22.9 µM)
MIC ([3]; Staphylococcus aureus): 64 µg/mL (≈ 183 µM)
MIC (E. coli 1F28 (tet(X4)); [10]): > 128 µg/mL
MIC (E. faecalis A4 (VRE); Enterococcus faecalis, E. faecalis A4 (VRE), broth micro-dilution CLSI 2018, MHB, 18 h, 37 °C, read-out: MIC): 32 µg/mL (≈ 91.6 µM)
MIC (E. coli B3-1 (tet(X4)); [11]): > 128 µg/mL

WKVWKVWKV-NH2 [WV-9]
MIC [1, 6]: >64 µg/mL

RWRWRW-NH2 [MP196]
hemolysis to RBCs (RBCs): high hemolysis
in vivo stability [5]: low in vivo stability
MIC [1, 6]: >64 µg/mL

WRLRWRLRWRLR-NH2 [WR-12]
MIC [1, 6]: 2 µg/mL

CN[C@H](CC(C)C)C(=O)N[C@H]1C(=O)N[C@@H](CC(N)=O)C(=O)N[C@H]2C(=O)N[C@H]3C(=O)N[C@H](C(=O)N[C@H](C(=O)O)c4cc(O)cc(O)c4-c4cc3ccc4O)[C@H](O)c3ccc(c(Cl)c3)Oc3cc2cc(c3O[C@@H]2O[C@H](CO)[C@@H](O)[C@H](O)[C@H]2O[C@H]2C[C@](C)(N)[C@H](O)[C@H](C)O2)Oc2ccc(cc2Cl)[C@H]1O [VAN, vancomycin]
MIC (MRSA T144; Staphylococcus aureus, MRSA, 18 h): 1 µg/mL (≈ 0.69 µM)
MIC (S. aureus ATCC 29213; [12]): 0.5 µg/mL (≈ 0.345 µM)
MIC ([1]; Escherichia coli, 18 h): 128 µg/mL (≈ 88.3 µM)
MIC ([2]; Salmonella enterica, 18 h): 128 µg/mL (≈ 88.3 µM)
MIC (E. coli ATCC 25922; [13]): 128 µg/mL (≈ 88.3 µM)
MIC ([3]; Staphylococcus aureus): 1 µg/mL (≈ 0.69 µM)
MIC (E. coli 1F28 (tet(X4)); Escherichia coli, 18 h): 128 µg/mL (≈ 88.3 µM)
MIC (E. faecalis A4 (VRE); [14]): > 128 µg/mL
MIC (E. coli B3-1 (tet(X4)); Escherichia coli, 18 h): 64 µg/mL (≈ 44.2 µM)

KWKWKW-NH2 [KW-6]
MIC [1, 6]: >64 µg/mL

CN(C)c1cc(NC(=O)CNC(C)(C)C)c(O)c2c1C[C@H]1C[C@H]3[C@H](N(C)C)C(O)=C(C(N)=O)C(=O)[C@@]3(O)C(O)=C1C2=O [TIG, tigecycline, reference compound]
MIC (E. coli 1F31; Escherichia coli, E. coli 1F31, tigecycline-resistant clinical isolate, broth micro-dilution, read-out: MIC): 32 µg/mL (≈ 54.6 µM)
MIC (Shigella 1F25; read-out: MIC): 8 µg/mL (≈ 13.7 µM)
MIC (E. coli 1C1; Escherichia coli, E. coli 1C1, dust, tigecycline-resistant clinical isolate, broth micro-dilution, read-out: MIC): 32 µg/mL (≈ 54.6 µM)
MIC (E. coli 1N31; Escherichia coli, E. coli 1N31, tigecycline-resistant clinical isolate, broth micro-dilution, read-out: MIC): 128 µg/mL (≈ 219 µM)
MIC (E. coli 2A19; Escherichia coli, E. coli 2A19, tigecycline-resistant clinical isolate, broth micro-dilution, read-out: MIC): 8 µg/mL (≈ 13.7 µM)
MIC (E. coli 1A34; Escherichia coli, E. coli 1A34, anal swab, tigecycline-resistant clinical isolate, broth micro-dilution, read-out: MIC): 16 µg/mL (≈ 27.3 µM)
MIC (E. coli 2W25; Escherichia coli, E. coli 2W25, water, tigecycline-resistant clinical isolate, broth micro-dilution, read-out: MIC): 64 µg/mL (≈ 109 µM)
MIC (E. coli 1N28; Escherichia coli, E. coli 1N28, nasal swab, tigecycline-resistant clinical isolate, broth micro-dilution, read-out: MIC): 32 µg/mL (≈ 54.6 µM)
MIC (E. coli 1F16; Escherichia coli, E. coli 1F16, feces, tigecycline-resistant clinical isolate, broth micro-dilution, read-out: MIC): > 64 µg/mL
MIC (MRSA T144; [8]): 2 µg/mL (≈ 3.41 µM)
MIC (S. aureus ATCC 29213; [12]): 0.125 µg/mL (≈ 0.213 µM)
MIC [1, 9]: 2 µg/mL
MIC ([2]; Salmonella enterica, 18 h): 0.125 µg/mL (≈ 0.213 µM)
MIC (E. coli ATCC 25922; [13]): 0.125 µg/mL (≈ 0.213 µM)
MIC ([3]; Staphylococcus aureus): 1 µg/mL (≈ 1.71 µM)
MIC (E. coli 1F28 (tet(X4)); [10]): 32 µg/mL (≈ 54.6 µM)
MIC (E. faecalis A4 (VRE); [14]): 0.125 µg/mL (≈ 0.213 µM)
MIC (E. coli B3-1 (tet(X4)); [11]): 32 µg/mL (≈ 54.6 µM)

WKWKWK-NH2 [WK-6]
MIC [1, 6]: >64 µg/mL

WRLWRLWRL-NH2 [WL-9]
MIC [1, 6]: 8 µg/mL

colistin
MIC (MRSA T144; MRSA T144, broth micro-dilution CLSI 2018, MHB, 18 h, 37 °C): 128 µg/mL
MIC (S. aureus ATCC 29213; S. aureus ATCC 29213, broth micro-dilution CLSI 2018, MHB, 18 h, 37 °C): 16 µg/mL
MIC ([1]; Table 2, E. coli B2 (mcr-1 + blaNDM-5), broth micro-dilution CLSI 2018, MHB, 18 h, 37 °C): 8 µg/mL
MIC ([2]; S. enteritidis ATCC 13076, broth micro-dilution CLSI 2018, MHB, 18 h, 37 °C): 0.25 µg/mL
MIC (E. coli ATCC 25922; E. coli ATCC 25922, broth micro-dilution CLSI 2018, MHB, 18 h, 37 °C): 0.5 µg/mL
MIC [3, 7]: 64 µg/mL
MIC (E. coli 1F28 (tet(X4)); E. coli 1F28 (tet(X4)), broth micro-dilution CLSI 2018, MHB, 18 h, 37 °C): 0.25 µg/mL
MIC (E. faecalis A4 (VRE); E. faecalis A4 (VRE), broth micro-dilution CLSI 2018, MHB, 18 h, 37 °C): 128 µg/mL
MIC (E. coli B3-1 (tet(X4)); E. coli B3-1 (tet(X4)), broth micro-dilution CLSI 2018, MHB, 18 h, 37 °C): 0.25 µg/mL
